According to US20070292908A1, “Method for Detecting Streptococcus Agalactiae Using Alpha-Glucosidase Activity” (BIOMERIEUX, priority 2004, published 2007):

Legend:
Streptococcus agalactiae [1] = test: Detection of Streptococcus agalactiae strains on reaction media containing an α-glucosidase enzymatic substrate; assay type: cell-based; conditions: substrate 0.1 g/l; for intensity (I) of coloration: arbitrary scale 0 to 4
Description: The reaction media were prepared by mixing heart-brain extract (4.84 g/l; Solabia), meat infusion (1.96 g/l; Solabia), biothione (1 g/l; Solabia), biotrypcase (7.2 g/l; Solabia), sodium carbonate (0.3 g/l; VWR), sodium pyruvate (2 g/l; Fluka), HEPES buffer (0.4 g/l; Sigma), lactalbumin peptone (2 g/l; DMV), glucose (1 g/l; Merck), American agar (2 g/l; Sobigel) and European agar (12 g/l; Roko).
The media were then poured into a Petri dish for subsequent inoculation with bacterial strains.
Eight Streptococcus agalactiae strains derived from the applicant's collection, suspended in physiological saline, were inoculated so as to give isolated colonies on each of the media. The dishes were then incubated at 37° C. for 48 hours. The colonies formed are examined visually after 18, 24 and more than 40 hours of incubation. The coloration of these colonies, the growth and also the intensity of this coloration were noted.
The results are given in table 1 below and are expressed: • in terms of growth (G) with the size being indicated in mm, • in terms of intensity (1) of coloration based on an arbitrary scale ranging from 0 to 4, 0 corresponding to an absence of activity and 4 corresponding to the presence of a very intense coloration, • in terms of color (Co) with T=turquoise, R=pink or red, Gr=green, Mg=magenta, • according to the incubation time in hours (T).

Streptococcus agalactiae [2] = test: Number of strains detected as a function of the concentration of α-glucosidase substrate; assay type: cell-based; conditions: positive when I≧0.6, 8 strains
Description: The above protocol was repeated, with the exception that the concentration of enzymatic substrate was varied.
Table 2 below gives the number of strains detected (considered to be positive when I≧0.6) as a function of the concentration of substrate.

[3] = strain 0008200, 18 h incubation
[4] = strain 0008200, 24 h incubation
[5] = strain 0008200, >40 h incubation
[6] = strain 0008206, 18 h incubation
[7] = strain 0008206, 24 h incubation
[8] = strain 0008206, >40 h incubation
[9] = strain 0101060, 18 h incubation
[10] = strain 0101060, 24 h incubation
[11] = strain 0101060, >40 h incubation
[12] = strain 7611003, 18 h incubation
[13] = strain 7611003, 24 h incubation
[14] = strain 7611003, >40 h incubation
[15] = strain 7701031, 18 h incubation
[16] = strain 7701031, 24 h incubation
[17] = strain 7701031, >40 h incubation
[18] = strain 7702055, 18 h incubation
[19] = strain 7702055, 24 h incubation
[20] = strain 7702055, >40 h incubation
[21] = strain 8709013, 18 h incubation
[22] = strain 8709013, 24 h incubation
[23] = strain 8709013, >40 h incubation
[24] = strain 8904053, 18 h incubation
[25] = strain 8904053, 24 h incubation
[26] = strain 8904053, >40 h incubation
[27] = substrate 100 mg/l, incubation 24 h
[28] = substrate 100 mg/l, incubation 48 h
[29] = substrate 200 mg/l, incubation 24 h
[30] = substrate 200 mg/l, incubation 48 h
[31] = substrate 300 mg/l, incubation 24 h
[32] = substrate 300 mg/l, incubation 48 h

Compound: 5-bromo-6-chloro-3-indolyl-α-D-glucopyranoside [Magenta-alpha-Glu]
- intensity (I) of coloration (Streptococcus agalactiae [1]; strain 0008200, 18 h): 0.5
- growth (G), size (Streptococcus agalactiae [1]; [3]): 0.5 mm
- intensity (I) of coloration (Streptococcus agalactiae [1]; strain 0008200, 24 h): 0.8
- growth (G), size (Streptococcus agalactiae [1]; [4]): 0.5 mm
- intensity (I) of coloration (Streptococcus agalactiae [1]; strain 0008200, >40 h): 3
- growth (G), size (Streptococcus agalactiae [1]; [5]): 0.5 mm
- intensity (I) of coloration (Streptococcus agalactiae [1]; strain 0008206, 18 h): 0.6
- growth (G), size (Streptococcus agalactiae [1]; [6]): 0.7 mm
- intensity (I) of coloration (Streptococcus agalactiae [1]; strain 0008206, 24 h): 0.8
- growth (G), size (Streptococcus agalactiae [1]; [7]): 0.7 mm
- intensity (I) of coloration (Streptococcus agalactiae [1]; strain 0008206, >40 h): 3
- growth (G), size (Streptococcus agalactiae [1]; [8]): 0.7 mm
- intensity (I) of coloration (Streptococcus agalactiae [1]; strain 0101060, 18 h): 2.7
- growth (G), size (Streptococcus agalactiae [1]; [9]): 0.4 mm
- intensity (I) of coloration (Streptococcus agalactiae [1]; strain 0101060, 24 h): 2.7
- growth (G), size (Streptococcus agalactiae [1]; [10]): 0.4 mm
- intensity (I) of coloration (Streptococcus agalactiae [1]; strain 0101060, >40 h): 4
- growth (G), size (Streptococcus agalactiae [1]; [11]): 0.5 mm
- intensity (I) of coloration (Streptococcus agalactiae [1]; strain 7611003, 18 h): 1
- growth (G), size (Streptococcus agalactiae [1]; [12]): 0.5 mm
- intensity (I) of coloration (Streptococcus agalactiae [1]; strain 7611003, 24 h): 2
- growth (G), size (Streptococcus agalactiae [1]; [13]): 0.7 mm
- intensity (I) of coloration (Streptococcus agalactiae [1]; strain 7611003, >40 h): 3
- growth (G), size (Streptococcus agalactiae [1]; [14]): 0.7 mm
- growth (G), size (Streptococcus agalactiae [1]; [15]): 0.5 mm
- growth (G), size (Streptococcus agalactiae [1]; [16]): 0.5 mm
- intensity (I) of coloration (Streptococcus agalactiae [1]; strain 7701031, >40 h): 2
- growth (G), size (Streptococcus agalactiae [1]; [17]): 0.8 mm
- intensity (I) of coloration (Streptococcus agalactiae [1]; strain 7702055, 18 h): 0.5
- growth (G), size (Streptococcus agalactiae [1]; [18]): 0.5 mm
- intensity (I) of coloration (Streptococcus agalactiae [1]; strain 7702055, 24 h): 0.6
- growth (G), size (Streptococcus agalactiae [1]; [19]): 0.8 mm
- intensity (I) of coloration (Streptococcus agalactiae [1]; strain 7702055, >40 h): 3
- growth (G), size (Streptococcus agalactiae [1]; [20]): 1 mm
- intensity (I) of coloration (Streptococcus agalactiae [1]; strain 8709013, 18 h): 0.5
- growth (G), size (Streptococcus agalactiae [1]; [21]): 0.4 mm
- intensity (I) of coloration (Streptococcus agalactiae [1]; strain 8709013, 24 h): 1.3
- growth (G), size (Streptococcus agalactiae [1]; [22]): 0.5 mm
- intensity (I) of coloration (Streptococcus agalactiae [1]; strain 8709013, >40 h): 2.7
- growth (G), size (Streptococcus agalactiae [1]; [23]): 0.7 mm
- intensity (I) of coloration (Streptococcus agalactiae [1]; strain 8904053, 18 h): 0.6
- growth (G), size (Streptococcus agalactiae [1]; [24]): 0.7 mm
- intensity (I) of coloration (Streptococcus agalactiae [1]; strain 8904053, 24 h): 0.6
- growth (G), size (Streptococcus agalactiae [1]; [25]): 0.7 mm
- intensity (I) of coloration (Streptococcus agalactiae [1]; strain 8904053, >40 h): 3
- growth (G), size (Streptococcus agalactiae [1]; [26]): 0.7 mm
- number of strains detected (Streptococcus agalactiae [2]; [27]): 2/8
- number of strains detected (Streptococcus agalactiae [2]; [28]): 8/8
- number of strains detected (Streptococcus agalactiae [2]; [29]): 7/8
- number of strains detected (Streptococcus agalactiae [2]; [30]): 8/8
- number of strains detected (Streptococcus agalactiae [2]; [31]): 7/8
- number of strains detected (Streptococcus agalactiae [2]; [32]): 8/8

Compound: OC[C@H]1O[C@H](Oc2c[nH]c3cc(Br)ccc23)[C@H](O)[C@@H](O)[C@@H]1O [RedA-alpha-Glu, 6-bromo-3-indolyl-α-D-glucopyranoside]
- intensity (I) of coloration (Streptococcus agalactiae [1]; strain 0008200, 18 h): 0.1
- growth (G), size (Streptococcus agalactiae [1]; [3]): 0.7 mm
- intensity (I) of coloration (Streptococcus agalactiae [1]; strain 0008200, 24 h): 0.3
- growth (G), size (Streptococcus agalactiae [1]; [4]): 0.7 mm
- intensity (I) of coloration (Streptococcus agalactiae [1]; strain 0008200, >40 h): 1.7
- growth (G), size (Streptococcus agalactiae [1]; [5]): 0.7 mm
- intensity (I) of coloration (Streptococcus agalactiae [1]; strain 0008206, 18 h): 0.3
- growth (G), size (Streptococcus agalactiae [1]; [6]): 0.7 mm
- intensity (I) of coloration (Streptococcus agalactiae [1]; strain 0008206, 24 h): 0.5
- growth (G), size (Streptococcus agalactiae [1]; [7]): 0.8 mm
- intensity (I) of coloration (Streptococcus agalactiae [1]; strain 0008206, >40 h): 2
- growth (G), size (Streptococcus agalactiae [1]; [8]): 1.2 mm
- intensity (I) of coloration (Streptococcus agalactiae [1]; strain 0101060, 18 h): 0.5
- growth (G), size (Streptococcus agalactiae [1]; [9]): 0.4 mm
- intensity (I) of coloration (Streptococcus agalactiae [1]; strain 0101060, 24 h): 0.8
- growth (G), size (Streptococcus agalactiae [1]; [10]): 0.5 mm
- intensity (I) of coloration (Streptococcus agalactiae [1]; strain 0101060, >40 h): 3
- growth (G), size (Streptococcus agalactiae [1]; [11]): 0.7 mm
- intensity (I) of coloration (Streptococcus agalactiae [1]; strain 7611003, 18 h): 0.5
- growth (G), size (Streptococcus agalactiae [1]; [12]): 1 mm
- intensity (I) of coloration (Streptococcus agalactiae [1]; strain 7611003, 24 h): 0.8
- growth (G), size (Streptococcus agalactiae [1]; [13]): 1 mm
- intensity (I) of coloration (Streptococcus agalactiae [1]; strain 7611003, >40 h): 2
- growth (G), size (Streptococcus agalactiae [1]; [14]): 1.3 mm
- growth (G), size (Streptococcus agalactiae [1]; [15]): 0.5 mm
- growth (G), size (Streptococcus agalactiae [1]; [16]): 0.7 mm
- intensity (I) of coloration (Streptococcus agalactiae [1]; strain 7701031, >40 h): 0.5
- growth (G), size (Streptococcus agalactiae [1]; [17]): 1.2 mm
- growth (G), size (Streptococcus agalactiae [1]; [18]): 0.7 mm
- intensity (I) of coloration (Streptococcus agalactiae [1]; strain 7702055, 24 h): 0.3
- growth (G), size (Streptococcus agalactiae [1]; [19]): 1 mm
- intensity (I) of coloration (Streptococcus agalactiae [1]; strain 7702055, >40 h): 2.3
- growth (G), size (Streptococcus agalactiae [1]; [20]): 1.7 mm
- growth (G), size (Streptococcus agalactiae [1]; [21]): 0.5 mm
- growth (G), size (Streptococcus agalactiae [1]; [22]): 0.5 mm
- intensity (I) of coloration (Streptococcus agalactiae [1]; strain 8709013, >40 h): 0.8
- growth (G), size (Streptococcus agalactiae [1]; [23]): 0.7 mm
- growth (G), size (Streptococcus agalactiae [1]; [24]): 0.7 mm
- intensity (I) of coloration (Streptococcus agalactiae [1]; strain 8904053, 24 h): 0.3
- growth (G), size (Streptococcus agalactiae [1]; [25]): 0.7 mm
- intensity (I) of coloration (Streptococcus agalactiae [1]; strain 8904053, >40 h): 1.7
- growth (G), size (Streptococcus agalactiae [1]; [26]): 0.8 mm
- number of strains detected (Streptococcus agalactiae [2]; [27]): 1/8
- number of strains detected (Streptococcus agalactiae [2]; [28]): 7/8
- number of strains detected (Streptococcus agalactiae [2]; [29]): 5/8
- number of strains detected (Streptococcus agalactiae [2]; [30]): 8/8
- number of strains detected (Streptococcus agalactiae [2]; [31]): 6/8
- number of strains detected (Streptococcus agalactiae [2]; [32]): 8/8
